Tests used:
[1] = Inhibition of tobacco hornworm midgut vacuolar ATPase V1/V0 holoenzyme; parameters: species or system Manduca sexta
L929 = assay: Growth inhibition of mouse L929 cells by MTT assay; assay type: functional, cell-based

Row | Compound | IC50 [1] | IC50 (L929)
1 | CNC(=O)O[C@@H](CC(C)C)c1nc([C@H]2OC(=O)/C(C)=C/C/C(C)=C/[C@@H](O)[C@@H](C)\C=C(C)/C=C(C)\C=C\[C@@H](O)[C@H](C)[C@H](OC)/C(C)=C/C=C/[C@@H]2C)cs1 [ARCHAZOLID A] | 0.6 nmol | 0.81 nM
2 | CNC(=O)O[C@@H](CC(C)C)c1nc([C@H]2OC(=O)/C(C)=C/C/C(C)=C/[C@@H](O[Si](C)(C)C(C)(C)C)[C@@H](C)\C=C(C)/C=C(C)\C=C\[C@@H](O)[C@H](C)[C@H](OC)/C(C)=C/C=C/[C@@H]2C)cs1 | – | 940 nM
3 | CO[C@@H]1/C(C)=C/C=C/[C@H](C)[C@@H](c2csc([C@@H](O)CC(C)C)n2)OC(=O)/C(C)=C/C/C(C)=C/[C@@H](O)[C@@H](C)\C=C(C)/C=C(C)\C=C\[C@@H](O)[C@@H]1C | – | 14 nM
4 | CNC(=O)O[C@@H](CC(C)C)c1nc([C@H]2OC(=O)/C(C)=C/C/C(C)=C/[C@@H](OC(=O)c3ccc([N+](=O)[O-])cc3)[C@@H](C)\C=C(C)/C=C(C)\C=C\[C@@H](O)[C@H](C)[C@H](OC)/C(C)=C/C=C/[C@@H]2C)cs1 | – | 290 nM
5 | CNC(=O)O[C@@H](CC(C)C)c1nc([C@H]2OC(=O)/C(C)=C/C/C(C)=C/[C@@H](O)[C@@H](C)\C=C(C)/C=C(C)\C=C\C(=O)[C@H](C)[C@H](OC)/C(C)=C/C=C/[C@@H]2C)cs1 [DEHYDROARCHAZOLID] | – | > 5000 nM
6 | CNC(=O)O[C@@H](CC(C)C)c1nc([C@H]2OC(=O)/C=C/C/C(C)=C/[C@@H](O)[C@@H](C)\C=C(C)/C=C(C)\C=C\[C@@H](O)[C@H](C)[C@H](OC)/C(C)=C/C=C/[C@@H]2C)cs1 [ARCHAZOLID B] | – | 1.1 nM

— ChEMBL document CHEMBL1139107, “Design, synthesis, and biological evaluation of novel analogues of archazolid: a highly potent simplified V-ATPase inhibitor” (Bioorg Med Chem Lett, 2007)
